The values below come from patent US11866430B2, “Naphthyridinone compounds useful as T cell activators” (priority 2018, dated 2024).

What is called IC50 is the concentration needed to halve the response being measured.

The target of one assay is human DGKζ (Homo sapiens (Human), UniProt Q13574). Put plainly: DGKζ assay (detergent/lipid micelle substrate). Format: biochemical. As to conditions: detergent/lipid micelle substrate; read-out: DGKζ IC50. The method, boiled down:
(§1)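 Full-length human DGKα or DGKζ (C-terminal His tag, Sf9-expressed; 20 nM 4× stock) was preincubated 10 min at room temperature with PS/DAG octyl glucoside micelles in MOPS pH 7.5 buffer with MgCl2, CaCl2 and DTT. It was then started with ATP (300 uM addition) and run for 1 hr, with ADP-Glo luminescence read-out.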

The target in a further assay is human DGKα (Homo sapiens (Human), UniProt P23743). In words: biochemical. As to conditions: detergent/lipid micelle substrate; read-out: DGKα IC50. The method, boiled down:
as §1

Assay [1] concerns pre-activated CD4 T cells and Raji cells. In words: Raji CD4 T Cell IL2 Assay. Format: cell-based. Particulars: Homo sapiens, Raji.

Molecules are shown by their SMILES.

Chain of human DGKα (P23743 other isoform, or with tags, fused parts or gaps): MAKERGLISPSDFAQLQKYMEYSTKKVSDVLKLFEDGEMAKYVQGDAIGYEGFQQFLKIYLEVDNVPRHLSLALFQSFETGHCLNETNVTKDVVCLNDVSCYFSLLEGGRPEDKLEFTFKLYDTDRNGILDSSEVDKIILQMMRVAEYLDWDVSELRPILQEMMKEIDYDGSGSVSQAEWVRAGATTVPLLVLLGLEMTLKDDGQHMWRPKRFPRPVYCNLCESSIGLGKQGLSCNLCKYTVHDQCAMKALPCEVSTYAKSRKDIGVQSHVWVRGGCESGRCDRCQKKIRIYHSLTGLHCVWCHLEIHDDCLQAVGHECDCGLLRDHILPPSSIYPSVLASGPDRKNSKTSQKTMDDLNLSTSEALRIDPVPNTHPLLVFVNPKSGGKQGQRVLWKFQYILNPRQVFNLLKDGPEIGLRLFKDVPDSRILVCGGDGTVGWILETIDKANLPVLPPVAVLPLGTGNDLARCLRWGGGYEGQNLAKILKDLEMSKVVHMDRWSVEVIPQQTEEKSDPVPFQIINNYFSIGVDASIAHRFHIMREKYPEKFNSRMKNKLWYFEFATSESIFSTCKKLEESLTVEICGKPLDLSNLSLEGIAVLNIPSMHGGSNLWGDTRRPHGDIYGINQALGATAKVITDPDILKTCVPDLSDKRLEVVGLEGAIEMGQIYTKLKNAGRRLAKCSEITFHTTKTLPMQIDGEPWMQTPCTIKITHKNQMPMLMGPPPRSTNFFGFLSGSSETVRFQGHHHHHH
Chain of human DGKζ (Q13574 other isoform, or with tags, fused parts or gaps): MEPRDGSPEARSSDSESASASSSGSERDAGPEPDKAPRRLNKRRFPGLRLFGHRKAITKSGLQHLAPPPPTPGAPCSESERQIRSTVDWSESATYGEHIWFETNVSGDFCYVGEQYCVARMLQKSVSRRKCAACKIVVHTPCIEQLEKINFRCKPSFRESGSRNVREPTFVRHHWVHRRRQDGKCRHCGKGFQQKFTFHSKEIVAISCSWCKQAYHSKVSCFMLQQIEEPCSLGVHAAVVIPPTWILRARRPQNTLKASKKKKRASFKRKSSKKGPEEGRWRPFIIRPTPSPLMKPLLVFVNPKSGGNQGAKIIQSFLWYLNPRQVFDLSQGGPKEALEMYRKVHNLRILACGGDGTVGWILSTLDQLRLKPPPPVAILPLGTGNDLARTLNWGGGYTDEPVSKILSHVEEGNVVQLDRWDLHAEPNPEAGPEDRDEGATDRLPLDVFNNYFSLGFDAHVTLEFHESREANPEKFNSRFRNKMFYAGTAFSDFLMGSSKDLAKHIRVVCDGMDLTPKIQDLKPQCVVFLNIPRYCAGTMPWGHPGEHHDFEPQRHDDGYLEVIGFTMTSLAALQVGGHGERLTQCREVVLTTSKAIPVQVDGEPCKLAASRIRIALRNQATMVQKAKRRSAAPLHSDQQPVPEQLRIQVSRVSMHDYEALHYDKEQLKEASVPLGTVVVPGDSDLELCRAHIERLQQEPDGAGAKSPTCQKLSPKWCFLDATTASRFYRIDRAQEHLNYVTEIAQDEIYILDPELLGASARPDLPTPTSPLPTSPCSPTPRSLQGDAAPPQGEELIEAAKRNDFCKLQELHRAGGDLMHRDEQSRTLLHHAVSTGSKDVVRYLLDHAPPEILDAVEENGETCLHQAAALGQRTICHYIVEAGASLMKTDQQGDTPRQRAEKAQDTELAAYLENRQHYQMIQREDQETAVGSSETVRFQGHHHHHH

On to `Cn1c(=O)c(C#N)c(N2CCN(Cc3ccccc3NC(=O)Nc3ccccc3)CC2)c2nc(Br)ccc21` [Example 214, 1-(2-((4-(6-bromo-3-cyano-1-methyl-2-oxo-1,2-dihydro-1,5-naphthyridin-4-yl)piperazin-1-yl)methyl)phenyl)-3-phenylurea], for which the values for the IC50 (on human DGKζ; at human DGKα; in assay [1]) were above 81 µM, 3.1 µM and 0.55 µM, respectively.
The corresponding values for `CC(=O)Nc1ccccc1CN1CCN(c2c(C#N)c(=O)n(C)c3ccc(Br)nc23)CC1` [Example 215, N-(2-((4-(6-bromo-3-cyano-1-methyl-2-oxo-1,2-dihydro-1,5-naphthyridin-4-yl)piperazin-1-yl)methyl)phenyl)acetamide] are above 81 µM, 4.1 µM and 0.48 µM.
The corresponding values for `CCn1ccc2c(CN3CCN(c4c(C#N)c(=O)n(C)c5ccc(Cl)nc45)CC3)cccc21` [Example 220, 6-chloro-4-(4-((1-ethyl-1H-indol-4-yl)methyl)piperazin-1-yl)-1-methyl-2-oxo-1,2-dihydro-1,5-naphthyridine-3-carbonitrile] are 89 µM, 1.7 µM and 0.063 µM.
The corresponding values for `Cn1c(=O)c(Br)c(N2CCN(C(c3ccc(F)cc3)c3ccc(F)cc3)CC2)c2ncccc21` [Example 230, 4-(4-(bis(4-fluorophenyl)methyl)piperazin-1-yl)-3-bromo-1-methyl-1,5-naphthyridin-2(1H)-one] are above 240 µM, 8.8 µM and 3.6 µM.
`CN(C)C(=O)c1ccc2c(n1)c(N1CCN(C(c3ccc(F)cc3)c3ccc(F)cc3)CC1)c(C#N)c(=O)n2C` [Example 231, 8-(4-(bis(4-fluorophenyl)methyl)piperazin-1-yl)-7-cyano-N,N,5-trimethyl-6-oxo-5,6-dihydro-1,5-naphthyridine-2-carboxamide]: the IC50 at human DGKζ was above 240 µM; at human DGKα it was 170 µM; in assay [1], 3 µM.
The corresponding values for `Cc1ccc2c(n1)c(N1CCN(C(c3ccc(F)cc3)c3ccc(F)cc3)CC1)c(C(F)(F)F)c(=O)n2C` [Example 232, 4-(4-(bis(4-fluorophenyl)methyl)piperazin-1-yl)-1,6-dimethyl-3-(trifluoromethyl)-1,5-naphthyridin-2(1H)-one] are above 240 µM, 150 µM and 1.1 µM.
Turning to `COCCn1c(=O)c([N+](=O)[O-])c(N2CCN(C(c3ccccc3)c3ccccc3)CC2)c2ncccc21` [Example 244, 4-[4-(diphenylmethyl)piperazin-1-yl]-1-(2-methoxyethyl)-3-nitro-1,2-dihydro-1,5-naphthyridin-2-one], the values for the IC50 (on human DGKζ; on human DGKα; in assay [1]) were above 81 µM, 32 µM and 0.69 µM, respectively.
The corresponding values for `Cc1ccc2c(n1)c(N1CCN(Cc3cc(OC(F)(F)F)ccc3O)CC1)c(C#N)c(=O)n2C` [Example 262, 4-(4-{[2-hydroxy-5-(trifluoromethoxy)phenyl]methyl}piperazin-1-yl)-1,6-dimethyl-2-oxo-1,2-dihydro-1,5-naphthyridine-3-carbonitrile] are above 240 µM, 0.52 µM and 0.028 µM.
On to `COc1cccc(O)c1CN1CCN(c2c(C#N)c(=O)n(C)c3ccc(Cl)nc23)CC1` [Example 264, 6-chloro-4-{4-[(2-hydroxy-6-methoxyphenyl)methyl]piperazin-1-yl}-1-methyl-2-oxo-1,2-dihydro-1,5-naphthyridine-3-carbonitrile], for which the IC50 is above 240 µM on human DGKζ, 0.62 µM on human DGKα and 0.036 µM in assay [1].
For `Cn1c(=O)c(C#N)c(N2CCN(Cc3ccc(OC(F)(F)F)cc3O)CC2)c2nc(C#N)ccc21` [Example 265, 8-(4-{[2-hydroxy-4-(trifluoromethoxy)phenyl]methyl}piperazin-1-yl)-5-methyl-6-oxo-5,6-dihydro-1,5-naphthyridine-2,7-dicarbonitrile], the values for the IC50 (at human DGKζ; on human DGKα; in assay [1]) were 36 µM, 0.034 µM and 0.039 µM, respectively.
For `Cn1c(=O)c(C#N)c(N2CCN(Cc3c(O)cccc3Cl)CC2)c2nc(Cl)ccc21` [Example 267, 6-chloro-4-{4-[(2-chloro-6-hydroxyphenyl)methyl]piperazin-1-yl}-1-methyl-2-oxo-1,2-dihydro-1,5-naphthyridine-3-carbonitrile], the results for the IC50 (at human DGKζ; on human DGKα; in assay [1]) were above 240 µM, 0.31 µM and 0.048 µM, respectively.
The corresponding values for `Cn1c(=O)c(C#N)c(N2CCN(Cc3cccc(Br)c3O)CC2)c2nc(Cl)ccc21` [Example 268, 4-{4-[(3-bromo-2-hydroxyphenyl)methyl]piperazin-1-yl}-6-chloro-1-methyl-2-oxo-1,2-dihydro-1,5-naphthyridine-3-carbonitrile] are 120 µM, 0.68 µM and 0.051 µM.
With `Cn1c(=O)c(C#N)c(N2CCN(Cc3cc(OC(F)(F)F)ccc3O)CC2)c2nc(Br)ccc21` [Example 270, 6-bromo-4-(4-{[2-hydroxy-5-(trifluoromethoxy)phenyl]methyl}piperazin-1-yl)-1-methyl-2-oxo-1,2-dihydro-1,5-naphthyridine-3-carbonitrile], the IC50 at human DGKζ was above 240 µM; at human DGKα, 0.19 µM; in assay [1] it was 0.059 µM.
Regarding `Cn1c(=O)c(C#N)c(N2CCN(Cc3c(O)cccc3Br)CC2)c2nc(Br)ccc21` [Example 271, 6-bromo-4-{4-[(2-bromo-6-hydroxyphenyl)methyl]piperazin-1-yl}-1-methyl-2-oxo-1,2-dihydro-1,5-naphthyridine-3-carbonitrile], the IC50 at human DGKζ was determined as 110 µM; at human DGKα it was 1.1 µM; in assay [1], 0.061 µM.
As to `Cn1c(=O)c(C#N)c(N2CCN(Cc3ccc(Br)cc3O)CC2)c2nc(Cl)ccc21` [Example 276, 4-{4-[(4-bromo-2-hydroxyphenyl)methyl]piperazin-1-yl}-6-chloro-1-methyl-2-oxo-1,2-dihydro-1,5-naphthyridine-3-carbonitrile], the IC50 on human DGKζ is above 240 µM; on human DGKα, 0.012 µM; in assay [1] it was 0.079 µM.
With `Cn1c(=O)c(C#N)c(N2CCN(Cc3cccc(Cl)c3O)CC2)c2nc(Br)ccc21` [Example 278, 6-bromo-4-{4-[(3-chloro-2-hydroxyphenyl)methyl]piperazin-1-yl}-1-methyl-2-oxo-1,2-dihydro-1,5-naphthyridine-3-carbonitrile], the IC50 was above 81 µM at human DGKζ, 0.35 µM at human DGKα and 0.087 µM in assay [1].
The corresponding values for `Cn1c(=O)c(C#N)c(N2CCN(Cc3c(O)cccc3F)CC2)c2nc(Cl)ccc21` [Example 280, 6-chloro-4-{4-[(2-fluoro-6-hydroxyphenyl)methyl]piperazin-1-yl}-1-methyl-2-oxo-1,2-dihydro-1,5-naphthyridine-3-carbonitrile] are above 240 µM, 0.076 µM and 0.092 µM.
With `Cn1c(=O)c(C#N)c(N2CCN(Cc3cc(Br)ccc3O)CC2)c2nc(Br)ccc21` [Example 282, 6-bromo-4-{4-[(5-bromo-2-hydroxyphenyl)methyl]piperazin-1-yl}-1-methyl-2-oxo-1,2-dihydro-1,5-naphthyridine-3-carbonitrile], the IC50 was above 240 µM on human DGKζ, 0.22 µM on human DGKα and 0.094 µM in assay [1].
The corresponding values for `Cn1c(=O)c(C#N)c(N2CCN(Cc3ccccc3NC(=O)OC(C)(C)C)CC2)c2nc(Br)ccc21` [Example 284, tert-butyl N-(2-{[4-(6-bromo-3-cyano-1-methyl-2-oxo-1,2-dihydro-1,5-naphthyridin-4-yl)piperazin-1-yl]methyl}phenyl)carbamate] are above 240 µM, 1 µM and 0.098 µM.
In the case of `Cn1c(=O)c(C#N)c(N2CCN(Cc3ccccc3OC(F)(F)F)CC2)c2nc(Cl)ccc21` [Example 285, 6-chloro-1-methyl-2-oxo-4-(4-{[2-(trifluoromethoxy)phenyl]methyl}piperazin-1-yl)-1,2-dihydro-1,5-naphthyridine-3-carbonitrile], the values for the IC50 (on human DGKζ; at human DGKα; in assay [1]) were above 240 µM, 0.91 µM and 0.1 µM, respectively.
The corresponding values for `Cc1ccc2c(n1)c(N1CCN(Cc3cccc(Br)c3O)CC1)c(C#N)c(=O)n2C` [Example 286, 4-{4-[(3-bromo-2-hydroxyphenyl)methyl]piperazin-1-yl}-1,6-dimethyl-2-oxo-1,2-dihydro-1,5-naphthyridine-3-carbonitrile] are 140 µM, 1.2 µM and 0.1 µM.
In the case of `Cc1ccc(CN2CCN(c3c(C#N)c(=O)n(C)c4ccc(Cl)nc34)CC2)cc1F` [Example 289, 6-chloro-4-{4-[(3-fluoro-4-methylphenyl)methyl]piperazin-1-yl}-1-methyl-2-oxo-1,2-dihydro-1,5-naphthyridine-3-carbonitrile], the IC50 at human DGKζ was above 81 µM; on human DGKα, 0.25 µM; in assay [1], 0.11 µM.
As to `Cc1cc(F)cc(CN2CCN(c3c(C#N)c(=O)n(C)c4ccc(Cl)nc34)CC2)c1` [Example 290, 6-chloro-4-{4-[(3-fluoro-5-methylphenyl)methyl]piperazin-1-yl}-1-methyl-2-oxo-1,2-dihydro-1,5-naphthyridine-3-carbonitrile], the IC50 on human DGKζ is above 240 µM; at human DGKα it was 2.2 µM; in assay [1] it was 0.11 µM.
Taken in the same sequence, the figures for `Cn1c(=O)c(C#N)c(N2CCN(Cc3cc(F)cc(F)c3)CC2)c2nc(Cl)ccc21` [Example 291, 6-chloro-4-{4-[(3,5-difluorophenyl)methyl]piperazin-1-yl}-1-methyl-2-oxo-1,2-dihydro-1,5-naphthyridine-3-carbonitrile] were above 81 µM, 0.33 µM and 0.11 µM.
